Results published in ChEMBL document CHEMBL4024794 (J Med Chem, 2018).
Activity calls are given as the source filed them. The rule behind the calls is not given here.

Key:
[1] = target: T1, Nicotinamide N-methyltransferase (Homo sapiens, UniProt P40261); assay: Binding affinity to human NNMT (1 to 264 residues) expressed in Escherichia coli BL21 (DE3) by isothermal titration calorimetric method
T1 sequence (P40261 whole entry): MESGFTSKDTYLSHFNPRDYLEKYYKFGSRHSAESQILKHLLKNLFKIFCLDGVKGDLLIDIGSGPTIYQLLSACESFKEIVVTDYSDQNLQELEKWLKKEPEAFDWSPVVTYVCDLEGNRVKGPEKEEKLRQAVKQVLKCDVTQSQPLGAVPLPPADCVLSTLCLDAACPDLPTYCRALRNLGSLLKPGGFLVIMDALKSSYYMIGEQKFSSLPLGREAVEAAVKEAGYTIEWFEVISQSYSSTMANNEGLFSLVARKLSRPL

[2] = target: T1, Nicotinamide N-methyltransferase; assay: Inhibition of human NNMT (1 to 264 residues) expressed in Escherichia coli BL21 (DE3) using nicotinamide/SAM as substrate/co-factor measured for 20 mins by SAHH-coupled fluorescent assay
[3] = target: T2, Nicotinamide N-methyltransferase (Homo sapiens) (UniProt P40261)
T2 sequence (whole entry): T1 sequence (P40261 whole entry)
Description: Binding affinity to human NNMT (1 to 264 residues) expressed in Escherichia coli BL21 (DE3) assessed as change in entropy by isothermal titration calorimetric method

[4] = target: T2, Nicotinamide N-methyltransferase (Homo sapiens); remark: listed apart in the source
Description: Binding affinity to human NNMT (1 to 264 residues) expressed in Escherichia coli BL21 (DE3) assessed as change in enthalpy by isothermal titration calorimetric method

[5] = target: T2, Nicotinamide N-methyltransferase (Homo sapiens); assay: Competitive inhibition of human NNMT (1 to 264 residues) expressed in Escherichia coli BL21 (DE3) at 1 to 250 uM measured for 20 mins in presence of varying concentration of SAM by Lineweaver-Burk plot analysis
[6] = target: T2, Nicotinamide N-methyltransferase (Homo sapiens); assay: Nonompetitive inhibition of human NNMT (1 to 264 residues) expressed in Escherichia coli BL21 (DE3) at 1 to 250 uM measured for 20 mins in presence of varying concentration of nicotinamide by Lineweaver-Burk plot analysis
[7] = target: T3, RNA 5'-monophosphate methyltransferase (Homo sapiens, UniProt Q7Z5W3); assay: Inhibition of BCDIN3D (unknown origin) using [3H]-SAM as co-factor by scintillation proximity assay
T3 sequence (Q7Z5W3 whole entry): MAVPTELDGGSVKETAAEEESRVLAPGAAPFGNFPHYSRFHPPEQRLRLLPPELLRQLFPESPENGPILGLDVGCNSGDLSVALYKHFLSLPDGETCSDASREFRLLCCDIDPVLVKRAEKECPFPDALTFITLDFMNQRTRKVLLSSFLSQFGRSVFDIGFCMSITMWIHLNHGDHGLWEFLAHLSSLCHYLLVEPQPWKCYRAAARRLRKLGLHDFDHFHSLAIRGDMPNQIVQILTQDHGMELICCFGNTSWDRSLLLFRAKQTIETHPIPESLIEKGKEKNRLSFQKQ

[8] = target: T4, Protein arginine N-methyltransferase 7 (Homo sapiens, UniProt Q9NVM4); assay: Inhibition of PRMT7 (unknown origin) using [3H]-SAM as co-factor by scintillation proximity assay
T4 sequence (Q9NVM4 whole entry): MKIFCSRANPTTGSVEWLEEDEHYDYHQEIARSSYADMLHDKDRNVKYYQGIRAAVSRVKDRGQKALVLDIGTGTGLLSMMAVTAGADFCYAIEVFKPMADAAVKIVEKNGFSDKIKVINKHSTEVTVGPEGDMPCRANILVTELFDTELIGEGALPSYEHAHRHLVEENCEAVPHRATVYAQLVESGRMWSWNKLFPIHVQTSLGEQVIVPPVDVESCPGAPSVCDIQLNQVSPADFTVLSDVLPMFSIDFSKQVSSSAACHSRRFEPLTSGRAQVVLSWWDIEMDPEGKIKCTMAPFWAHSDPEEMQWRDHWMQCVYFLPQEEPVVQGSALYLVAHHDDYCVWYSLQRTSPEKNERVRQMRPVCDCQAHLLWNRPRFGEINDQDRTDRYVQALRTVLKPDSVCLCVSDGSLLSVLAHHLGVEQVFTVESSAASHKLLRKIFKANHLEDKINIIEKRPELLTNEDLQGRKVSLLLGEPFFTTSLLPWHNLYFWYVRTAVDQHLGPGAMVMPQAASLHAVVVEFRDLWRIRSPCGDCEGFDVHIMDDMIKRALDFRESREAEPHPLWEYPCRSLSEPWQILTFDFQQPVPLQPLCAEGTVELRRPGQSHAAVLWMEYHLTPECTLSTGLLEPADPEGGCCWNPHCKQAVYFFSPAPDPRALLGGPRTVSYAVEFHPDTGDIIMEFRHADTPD

[9] = target: N-lysine methyltransferase SMYD2 (Homo sapiens, UniProt Q9NRG4); assay: Inhibition of SMYD2 (unknown origin) using [3H]-SAM as co-factor by scintillation proximity assay
Chain of N-lysine methyltransferase SMYD2 (Q9NRG4 whole entry): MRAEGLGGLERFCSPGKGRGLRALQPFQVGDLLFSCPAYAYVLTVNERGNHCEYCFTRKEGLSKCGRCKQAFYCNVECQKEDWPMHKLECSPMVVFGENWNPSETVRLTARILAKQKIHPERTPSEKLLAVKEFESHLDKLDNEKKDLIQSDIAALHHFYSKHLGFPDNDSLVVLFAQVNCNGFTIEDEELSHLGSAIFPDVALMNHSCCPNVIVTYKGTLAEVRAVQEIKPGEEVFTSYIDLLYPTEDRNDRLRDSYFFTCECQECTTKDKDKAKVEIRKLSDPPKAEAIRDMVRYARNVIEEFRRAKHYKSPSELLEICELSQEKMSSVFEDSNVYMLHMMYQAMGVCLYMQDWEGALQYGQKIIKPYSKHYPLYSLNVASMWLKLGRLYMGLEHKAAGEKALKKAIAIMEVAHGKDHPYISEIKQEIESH

[10] = target: Histone-lysine N-methyltransferase, H3 lysine-79 specific (Homo sapiens, UniProt Q8TEK3); assay: Inhibition of DOT1L (unknown origin) after 1 hr by filter-based assay
Chain of Histone-lysine N-methyltransferase, H3 lysine-79 specific (Q8TEK3 whole entry): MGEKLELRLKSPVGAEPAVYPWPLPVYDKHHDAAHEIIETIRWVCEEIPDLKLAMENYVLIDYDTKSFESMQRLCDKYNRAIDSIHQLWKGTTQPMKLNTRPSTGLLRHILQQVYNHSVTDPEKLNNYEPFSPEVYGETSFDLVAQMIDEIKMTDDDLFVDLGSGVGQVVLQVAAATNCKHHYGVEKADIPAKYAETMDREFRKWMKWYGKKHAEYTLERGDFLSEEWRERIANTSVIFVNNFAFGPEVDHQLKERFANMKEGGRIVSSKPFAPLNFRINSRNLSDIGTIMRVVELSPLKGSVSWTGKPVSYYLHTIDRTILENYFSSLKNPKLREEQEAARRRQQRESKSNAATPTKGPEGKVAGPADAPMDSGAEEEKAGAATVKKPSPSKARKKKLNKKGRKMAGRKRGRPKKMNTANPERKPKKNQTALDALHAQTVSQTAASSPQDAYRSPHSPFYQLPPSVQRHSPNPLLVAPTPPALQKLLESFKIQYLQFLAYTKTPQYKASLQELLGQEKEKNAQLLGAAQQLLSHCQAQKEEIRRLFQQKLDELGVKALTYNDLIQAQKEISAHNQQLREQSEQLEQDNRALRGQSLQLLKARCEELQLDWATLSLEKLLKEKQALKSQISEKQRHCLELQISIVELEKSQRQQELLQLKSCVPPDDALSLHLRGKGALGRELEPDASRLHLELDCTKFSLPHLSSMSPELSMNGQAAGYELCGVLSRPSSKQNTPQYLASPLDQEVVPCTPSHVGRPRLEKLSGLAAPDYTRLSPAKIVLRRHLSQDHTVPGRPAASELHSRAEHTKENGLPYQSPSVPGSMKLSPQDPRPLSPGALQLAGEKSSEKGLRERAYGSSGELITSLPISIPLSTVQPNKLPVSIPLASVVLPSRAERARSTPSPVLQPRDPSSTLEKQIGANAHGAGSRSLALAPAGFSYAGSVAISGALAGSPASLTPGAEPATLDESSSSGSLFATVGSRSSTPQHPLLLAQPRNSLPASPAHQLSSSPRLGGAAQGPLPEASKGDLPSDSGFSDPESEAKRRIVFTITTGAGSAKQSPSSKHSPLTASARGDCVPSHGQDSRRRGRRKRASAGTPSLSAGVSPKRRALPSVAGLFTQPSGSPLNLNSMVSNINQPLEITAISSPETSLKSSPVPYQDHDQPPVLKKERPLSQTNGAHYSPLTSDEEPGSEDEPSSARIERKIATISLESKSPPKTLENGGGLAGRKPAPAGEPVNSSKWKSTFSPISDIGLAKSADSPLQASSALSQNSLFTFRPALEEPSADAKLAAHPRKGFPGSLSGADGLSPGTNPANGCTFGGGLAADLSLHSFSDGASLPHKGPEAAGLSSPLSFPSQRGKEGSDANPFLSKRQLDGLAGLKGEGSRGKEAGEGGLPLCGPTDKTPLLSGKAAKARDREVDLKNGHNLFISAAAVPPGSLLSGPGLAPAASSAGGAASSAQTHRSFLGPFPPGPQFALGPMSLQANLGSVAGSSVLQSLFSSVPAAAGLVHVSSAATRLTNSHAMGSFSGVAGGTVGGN

inhibition [5]	inhibition [6]	IC50 [7] [µM]	IC50 [8] [µM]	IC50 [9] [µM]	IC50 [10] [µM]	SMILES	Kd [1] [µM]	IC50 [2] [µM]	deltaS [3] [cal/mol/deg]	deltaH [4] [kcal/mol]
						NC(=O)c1cccc(CCN(CC[C@H](N)C(=O)O)C[C@H]2O[C@@H](n3cnc4c(N)ncnc43)[C@H](O)[C@@H]2O)c1	42.8	160	11.4	-2.5
Active	Active	40	20	62	1.3	NC(=O)c1cccc(CCN(CCC[C@H](N)C(=O)O)C[C@H]2O[C@@H](n3cnc4c(N)ncnc43)[C@H](O)[C@@H]2O)c1	2.7	14	10	-4.6
